The values below are quoted from earlier work in patent US20090114566A1, “METHOD OF UPGRADING HEAVY HYDROCARBON STREAMS TO JET PRODUCTS” (Chevron U.S.A. Inc., priority 2007, published 2009).

By LD50 is commonly meant the dose at which mortality reaches 50%.

This data set relates to rats.

Where two headings read alike, the source gives them in different places.

Take `O=C(O)CC(O)C(=O)O` (stereo not drawn) [malic acid]: the LD50 (single oral dose to rats) is recorded as 1600 mg/kg. In the case of `O=C(O)CC(S)C(=O)O` (stereo not drawn) [mercapto-succinic acid], the LD50 (rat, in vivo, po) is 800 mg/kg. For `O=CC(=O)O` [glyoxylic, glyoxylic acid], where the note is “rat, in vivo, po”, the median lethal dose (LD50) is 3000 mg/kg. In the case of `CCOCC(=O)O` [ethoxy-acetic acid], the LD50 (rat, in vivo, po) is listed as 1292 mg/kg. For the molecule `CC(O)C(=O)O` (stereo not drawn) [lactic acid], under “single oral dose to rats”, the LD50 is on record as 3543 mg/kg. For `COCC(=O)O` [methoxy-acetic acid], the LD50 (rat, in vivo, po) is 3200 mg/kg. Turning to `O=C(O)CCC(=O)O` [succinic acid], the LD50 (rat, in vivo, po) is 500 mg/kg.

Take `O=C(O)[C@H](O)[C@@H](O)[C@H](O)[C@H](O)CO` [gluconic acid]: the LD50 (single oral dose to rats) is recorded as 10380 mg/kg. For `O=C(O)/C=C/C(=O)O` [fumaric acid], the LD50 (rat, in vivo, po) is recorded as 10700 mg/kg.
